From doi:10.1101/2025.10.31.685654v2 (biorxiv, 2026) come the findings set out here.

Common to all, as to assay: two-electrode voltage clamp, Xenopus oocytes
In general terms: Two-electrode voltage clamp is typically applied to oocytes expressing channels or transporters.

Experiment [1] relates to T1, Dm-DopC1.
T1 construct: full-length homomeric pentamer expressed from cRNA in Xenopus laevis oocytes; predicted signal peptide residues 1-26
In kind it is cell-based, Daphnia magna. Particulars: antagonist against 50 µM dopamine; ND96 pH 7.5, -60 mV; 4-parameter fit, bottom = 0.

For experiment [2], the target named is T2, Dm-DopC1 (Daphnia magna, UniProt Z9WC39ES65, D188N).
T2 construct: full-length homomeric pentamer expressed from cRNA in Xenopus laevis oocytes; predicted signal peptide residues 1-26
T2 sequence (Z9WC39ES65 27-520 D188N limits assumed): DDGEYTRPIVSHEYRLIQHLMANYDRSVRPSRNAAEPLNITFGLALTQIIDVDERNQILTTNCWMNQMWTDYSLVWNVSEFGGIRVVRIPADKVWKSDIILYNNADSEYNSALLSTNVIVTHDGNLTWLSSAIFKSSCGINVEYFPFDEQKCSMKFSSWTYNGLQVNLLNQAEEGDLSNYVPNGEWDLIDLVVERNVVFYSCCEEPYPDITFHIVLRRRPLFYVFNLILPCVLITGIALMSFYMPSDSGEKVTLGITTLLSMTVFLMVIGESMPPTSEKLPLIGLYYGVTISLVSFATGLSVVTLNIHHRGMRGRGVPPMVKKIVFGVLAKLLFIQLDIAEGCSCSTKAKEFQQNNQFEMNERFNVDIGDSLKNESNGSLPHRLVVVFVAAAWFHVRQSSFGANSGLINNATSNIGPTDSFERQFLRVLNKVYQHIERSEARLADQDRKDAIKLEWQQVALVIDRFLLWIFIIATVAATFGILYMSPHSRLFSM
In kind it is cell-based.

Experiment [3] has as its target T3, Dm-DopC1 (Daphnia magna, UniProt Z9WC39ES65, N92T).
T3 construct: full-length homomeric pentamer expressed from cRNA in Xenopus laevis oocytes; predicted signal peptide residues 1-26
In kind it is cell-based. The text has this: two-electrode voltage clamp, Xenopus oocytes on Dm-DopC1

The term IC50 denotes the concentration needed to halve the response being measured. Higher therefore signals weaker potency in that assay. What is called EC50 is the concentration giving half of the maximal effect.

T3 sequence (Z9WC39ES65 27-520 N92T limits assumed): as the sequence (Z9WC39ES65 27-520 D188N limits assumed) above, with N66T, N162D counted along it

Turning to `CN1CCc2cccc3c2[C@H]1Cc1ccc(O)c(O)c1-3` [apomorphine], the IC50 in the experiment on Dm-DopC1 [1] worked out at 6 µM.
For the molecule `NCCc1ccc(O)c(O)c1` [dopamine], the EC50 on Dm-DopC1 [2] was greater than 9000 µM.
Turning to `CN1CCC[C@H]1c1cccnc1` [nicotine], it took 109 µM to reach half-maximal inhibition with Dm-DopC1 [1] (IC50).
As for `NC[C@H](O)c1ccc(O)c(O)c1` [norepinephrine], the EC50 at Dm-DopC1 [3] came out at 440 ± 114 µM.
Molecule `COc1cc2c3cc1Oc1cc(ccc1O)C[C@@H]1c4c(cc(OC)c(O)c4Oc4ccc(cc4)C[C@@H]3N(C)CC2)CC[N+]1(C)C` [tubocurarine] came in with a half-inhibitory concentration (IC50) in the experiment with Dm-DopC1 [1] of 0.9 µM.
